Measurements reported in patent US5859034A, “Tri-substituted phenyl compounds which have useful pharmaceutical activity” (Celltech Therapeutics, Limited, priority 1996, dated 1999).
pIC50: −log10 of the molar value.

Target: T1, recombinant PDE IVA enzyme (Homo sapiens, UniProt P27815)
T1 construct: made in house; host or cells: yeast (inducible vector)
Assay: Isolated Recombinant Human PDE IVA Enzyme
Format: biochemical
Settings: 0.1 μM [3H]-cAMP, pH 7.5, 30° C.
Excerpt: 1. Isolated Recombinant Human PDE IVA Enzyme
A gene encoding human PDE IV has been cloned from human monocytes (Livi, et al., 1990, Molecular and Cellular Biology, 10, 2678). Using similar procedures we have cloned human PDE IV genes from a number of sources including eosinophils, neutrophils, lymphocytes, monocytes, brain and neuronal tissues. These genes have been transfected into yeast using an inducible vector and various recombinant proteins have been expressed which have the biochemical characteristics of PDE IV (Beavo and Reifsnyder, 1990, TIPS, 11, 150). These recombinant enzymes, particularly the human eosinophil recombinant PDE IVA, have been used as the basis of a screen for potent, selective PDE IV inhibitors.
The enzymes were purified to isoenzyme homogeneity using standard chromatographic techniques.
Phosphodiesterase activity was assayed as follows. The reaction was conducted in 150 μl of standard mixture containing (final concentrations): 50 mM 2-[[tris(hydroxymethyl)methyl]amino]-1-ethanesulphonic acid (TES) --NaOH buffer (pH 7.5), 10 mM MgCl2, 0.1 μM [^3 H]-cAMP and vehicle or various concentrations of the test compounds. […] Recovery of [^3 H]-5'AMP was determined using the [^14 C]-5'AMP and all assays were conducted in the linear range of the reaction. Results were expressed as IC50 values.

T1 sequence (P27815 whole entry): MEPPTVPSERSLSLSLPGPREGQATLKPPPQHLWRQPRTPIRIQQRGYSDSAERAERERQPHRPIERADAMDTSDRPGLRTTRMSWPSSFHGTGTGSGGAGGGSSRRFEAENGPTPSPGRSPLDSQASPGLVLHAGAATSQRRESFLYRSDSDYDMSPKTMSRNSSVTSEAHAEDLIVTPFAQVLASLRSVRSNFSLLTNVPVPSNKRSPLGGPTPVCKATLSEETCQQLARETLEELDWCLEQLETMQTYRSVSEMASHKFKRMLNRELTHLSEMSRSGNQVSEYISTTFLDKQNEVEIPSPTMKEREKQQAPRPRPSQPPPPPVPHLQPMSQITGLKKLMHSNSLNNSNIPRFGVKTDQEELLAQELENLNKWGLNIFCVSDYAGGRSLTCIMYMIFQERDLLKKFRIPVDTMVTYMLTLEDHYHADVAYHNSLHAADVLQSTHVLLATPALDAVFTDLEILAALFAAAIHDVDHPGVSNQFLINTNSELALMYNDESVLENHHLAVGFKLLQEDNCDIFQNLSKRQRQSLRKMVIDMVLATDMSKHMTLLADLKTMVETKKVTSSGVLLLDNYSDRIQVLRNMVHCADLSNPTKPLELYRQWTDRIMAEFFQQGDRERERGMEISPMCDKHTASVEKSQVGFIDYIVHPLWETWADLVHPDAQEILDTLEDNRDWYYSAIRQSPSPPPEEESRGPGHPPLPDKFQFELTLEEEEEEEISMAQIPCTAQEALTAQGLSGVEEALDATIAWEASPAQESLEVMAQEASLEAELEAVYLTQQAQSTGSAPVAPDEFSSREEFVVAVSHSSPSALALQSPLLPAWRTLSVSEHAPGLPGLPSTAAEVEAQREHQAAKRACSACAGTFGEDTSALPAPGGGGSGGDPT

Row | pIC50 | Structure (SMILES)
1 | 9.30 | CNC(=NC#N)Nc1cccc([C@@H](Cc2ccncc2)c2ccc(OC)c(OC3CCCC3)c2)c1 [Example 4, (R)-N"-Cyano-N'-{3-[1-[3-cyclopentyloxy-4-methoxyphenyl]-2-(4-pyridinyl)ethyl]phenyl}-N-methylamine]
2 | 8.48 | CNC(=C[N+](=O)[O-])Nc1cccc([C@@H](Cc2ccncc2)c2ccc(OC)c(OC3CCCC3)c2)c1 [Example 2, (R)-N-{(EIZ)-1-{3-[1-[3-Cyclopentyloxy-4-methoxyphenyl]-2-(4-pyridinyl)ethyl]anilino}-2-nitroethenyl}-N-methylamine]
